Measured values reported in patent US6258790A, “Antisense modulation of integrin α4 expression” (Isis Pharmaceuticals, Inc., priority 1999, dated 2001).

What was measured:
[1] = system: Mouse collagen-induced arthritis (CIA); test: Mouse collagen-induced arthritis (CIA) model for rheumatoid arthritis; type: in vivo, mouse (DBA/1LacJ)
From the text: A model for human rheumatoid arthritis has been developed wherein mice are immunized with bovine type II collagen. Anderson et al., J. Immunol. 1991 147, 1189-1193, citing Trentham et al., J. Exp. Med 1977, 146, 857. Swelling and inflammation of the joints follows in approximately 3 weeks, with joint distortion and ankylosis typical of rheumatoid arthritis. This model has been used to study the effects of the antisense oligonucleotide 17044, targeted to mouse integrin α4, on arthritis in mice.
DBA/1LacJ mice were obtained from Jackson Laboratory, Bar Harbor, Me. Female mice aged 6 to 8 weeks were used and assigned to groups, ten mice per group. On day 0 mice were immunized at the base of the tail with 100 ug of bovine type II collagen which was emulsified in Complete Freund's Adjuvant (CFA). On day 7, a second booster dose of collagen was administered by the same route. On day 14 the mice were injected subcutaneously with 100 ug of lipopolysaccharide (LPS). Weights were recorded weekly. Mice were inspected daily for the onset of CIA, which is characterized by erythema and edema. Upon the onset of the disease, paw widths and rear ankle widths of affected and unaffected joints were measured three times a week using a constant tension caliper. In addition, limbs were clinically evaluated and graded 0-4, where 0=normal; 1=one digit swollen; 2=inflammation present in more than one digit; 3=joint distortion with or without inflammation; and 4=ankylosis, detected by joint manipulation. The progression of all measurements was recorded to day 50. At the end of the observation period for each mouse, all paws were removed and examined histologically.
The oligonucleotide, the positive control drug (cyclophosphamide, 5 mg/kg), and the vehicle were administered daily to each mouse intraperitoneally (IP) starting on day -3 and continuing for the duration of the study. Each animal received 10 mg/kg as a bolus daily dose.
In a preliminary study, a single 10 mg/kg daily dose of […] was administered from the time of disease induction to the conclusion of the study 50 days later. Arthritis incidence was reduced from 70 to 30% in the ISIS 17044-treated group.

[2] = system: human integrin α4; test: Inhibition of human integrin α4 protein levels by antisense oligonucleotides (LIPOFECTIN, flow cytometry with CD49d-FITC) in A375 melanoma cells; type: cell-based
[3] = system: A375 melanoma cell adherence to HUVEC; test: Adherence of A375 melanoma cells to HUVEC (flow cytometry); type: cell-based, human; conditions: 10 μM; compared to TNF treated control
Description: Human umbilical vein endothelial cells (HUVEC) (Clonetics, San Diego Calif.) were cultured in EGM-UV medium (Clonetics)and treated with TNFA for 20 hours to induce VCAM expression. A375 melanoma cells were electroporated with ISIS 107248 as described above. Using antibody to PECAM, a specific marker for endothelial cells, flow cytometry was used to quantitate the inhibition of adherence of A375 melanoma cells to HUVECs. Compared to control (TNF treated, no oligonucleotide), ISIS 107248 (10 μM) inhibited A375 melanoma cell adherence to HUVEC by approximately 85%. An antibody to integrin α4 inhibited adherence by approximately 72%. Melanoma cells represent a clinically relevant model because a statistically significant correlation has been shown between increased expression of VLA-4 expression(of which integrin α4 is one member) and time to progression and overall survival time of patients with melanoma. Schadendorf et al., J. Natl. Cancer Inst., 1995, 87, 366-371.

[4] = system: Jurkat T-cell adherence to HUVEC; test: Adherence of Jurkat T-cells to HUVEC (flow cytometry); type: cell-based, human
Description: A similar adherence assay was performed using Jurkat T-cells instead of melanoma cells, again detecting adherence to HUVEC. Because Jurkat cells are smaller and less complex, they can be separated from HUVEC by gating on the basis of differences in forward light scatter and side scatter. For 5000 HUVEC events, adherent Jurkat cells were quantitated. At oligonucleotide concentrations of 1, 3, 10, and 30 μM ISIS 107248, adherence of Jurkat cells to HUVEC was 0, 12%, 32% and 63%, respectively.

[5] = Table 23, mice with arthritis, 10 mg/kg

Substance: 17044 (CCGCAGCCATGCGCTCTTGG; phosphorothioate, 2'-MOE/deoxy, further chemistry not given here) [compound 17044]
- # Paws/Mouse (mean number of affected paws at termination) ([1]; Table 22, 10 mg/kg daily IP): 0.7 ± 0.4
- Mean Day of Onset ([1]; Table 22, 10 mg/kg daily IP): 20.3 ± 1.9 days
- Peak Day of Inflamm. (day from onset to time of maximum swelling) ([1]; Table 22, 10 mg/kg daily IP): 1.6 ± 0.8 days
- Severity (total clinical score/total number of mice in group) ([1]; Table 22, 10 mg/kg daily IP): 2.1 ± 1.1
- Mean # of Paws Involved [1, 5]: 2.3 ± 0.3
- Mean Clinical Score [1, 5]: 7.0 ± 1.0
- Arthritis incidence ([1]; preliminary study, single 10 mg/kg daily dose, reduced from 70): 30%
- % Control ([2]; Table 4, 10 nM): 86%
- % Inhib. ([2]; Table 4, 10 nM): 14%
- % Control ([2]; Table 4, 30 nM): 73%
- % Inhib. ([2]; Table 4, 30 nM): 27%
- % Control ([2]; Table 4, 100 nM): 60%
- % Inhib. ([2]; Table 4, 100 nM): 40%
- % Control ([2]; Table 4, 300 nM): 58%
- % Inhib. ([2]; Table 4, 300 nM (highest dose)): 42%
- % Control ([2]; Table 6, 10 nM): 97%
- % Control ([2]; Table 6, 30 nM): 84%
- % Inhib. ([2]; Table 6, 30 nM): 16%
- % Control ([2]; Table 6, 100 nM): 68%
- % Inhib. ([2]; Table 6, 100 nM): 32%
- % Control ([2]; Table 6, 300 nM): 39%
- % Inhib. ([2]; Table 6, 300 nM (highest dose)): 61%

Substance: 107248 (antisense CTGAGTCTGTTTTCCATTCT; chemistry not given here) [compound 107248]
- inhibition of A375 melanoma cell adherence to HUVEC [3]: approximately 85%
- adherence of Jurkat cells to HUVEC ([4]; 1 μM): 0%
- adherence of Jurkat cells to HUVEC ([4]; 3 μM): 12%
- adherence of Jurkat cells to HUVEC ([4]; 10 μM): 32%
- adherence of Jurkat cells to HUVEC ([4]; 30 μM): 63%
- % Control ([2]; Table 24, A375 cells, lipofectin, as Example 8): 34%
